Laboratory results reported in article PMC4522710, “A putative ATPase mediates RNA transcription and capping in a dsRNA virus” (eLife, 2015).

Molecular target: T1, CPV turret protein (TP) (Bombyx mori cypovirus 1, UniProt Q914N6)
T1 construct: native full-length protein in intact virions purified from polyhedra; GTase, bridge, MT-1 and MT-2 domains; pentameric turret
Test: cryoEM structure of virion complex
Type: binding
Conditions: 10 mM MgCl2, pH 8.0, 31 °C

Row | SMILES | cryoEM structure of virion complex (1 mM SAM, MT-2 site (SAM alone, 3JB1), MT-1 and MT-2 sites with ATP and/or GTP present (3JAY, 3JB2, 3JB3)) | cryoEM structure of virion complex (2 mM GTP, GTase site (all four structures), also putative ATPase site with SAM without ATP (3JB2))
1 | C[S+](CC[C@H](N)C(=O)O)C[C@H]1O[C@@H](n2cnc3c(N)ncnc32)[C@H](O)[C@@H]1O (some centres unmarked) [SAM] | In S-CPV, one SAM binds to the MT-2 domain of each TP. | 
2 | Nc1nc2c(ncn2[C@@H]2O[C@H](COP(=O)(O)OP(=O)(O)OP(=O)(O)O)[C@@H](O)[C@H]2O)c(=O)[nH]1 [GTP] |  | In G-CPV, one GTP binds to the GTase site of GTase domain.
